Measured values as given in patent publication US6828462B2, “Unsaturated 1-amino-alkylcyclohexane NMDA, 5HT3, and neuronal nicotinic receptor antagonists” (Merz Pharma GmbH & Co. KGAA, priority 2001, dated 2004).
Read-outs that look alike come from different tables or passages of the source.

Experiments:
[1] = Accelerating rotarod test, ataxia (motor coordination); format: in vivo, mice; settings: mouse, in vivo, ip; NMR female mice, accelerating rotarod
Method: (§1) NMR female mice (18-28 g) housed 5 per cage were used for the maximal electroshock (MES) and motor impairment tests. All animals were kept with water and food ad libitum under a 12 hour light-dark cycle (light on at 6 a.m.) and at a controlled temperature (20±0.5C). All experiments were performed between 10 a.m. and 5 p.m. Tested agents were injected 30 min. i.p. before the induction of convulsions if not stated otherwise (see below). All compounds were dissolved in 0.9% saline.
(§2) The MES test was performed together with tests for myorelaxant action (traction reflex) and motor coordination (rotarod). For the traction reflex test mice were placed with their forepaws on a horizontal rod and were required to place all 4 paws on the wire within 10 seconds. To test ataxia (motor coordination) mice were placed on an accelerating rotarod and were required to remain on the rod for 1 minute. […] These tests were followed by MES (100 Hz, 0.5 second shock duration, 50 mA shock intensity, 0.9 ms impulse duration, Ugo Basile) applied through corneal electrodes. The presence of tonic convulsions was scored (tonic extension of hind paws with minimum angle to the body of 90). The aim was to obtain ED50s for all parameters scored (anticonvulsive activity and motor side effects) with use of the Litchfield Wilcoxon test for quantal dose responses. Division of the ED50 for side effects (ataxia or myorelaxation) by the ED50 for antagonism of electroshock convulsions was used as a therapeutic index (TI).
(§3) 4-7 doses of antagonists were tested in each of the in vivo tests (5-8 animals per dose) to allow calculation of graded ED50s according to probit analysis (Litchfield and Wilcoxon) with correction for 0% to 100% effects. ED50s are presented with 95% confidence limits (Cl). Pearson product moment correlation analysis (Sigma Stat, Jandel Scientific) was used to compare in vitro potencies and in vivo anticonvulsant activity.

[2] = test system: maximal electroshock (MES) tonic convulsions; assay: Maximal electroshock (MES) test, anticonvulsive activity; format: in vivo, mice; settings: for ED50: Mus musculus, ip, read-out: MES ED50
Method: as §1, §2, §3

[3] = biological target: NMDA receptor ([3H]-(+)-MK-801 site) (Rattus norvegicus, UniProt P35439); assay: [3H]-(+)-MK-801 receptor binding, rat cortex membranes
NMDA receptors = biological target: T1, NMDA receptors (Rattus norvegicus, UniProt P35439); assay: Patch clamp, NMDA-induced currents in hippocampal neurones; format: cell-based
T1 construct: Patch clamp recordings were made from these neurones; endogenous in cells; host or cells: primary cultured hippocampal neurones from rat embryos (E20 to E21)

[4] = Traction reflex test, myorelaxant action; format: in vivo, mice; settings: mouse, in vivo, ip; NMR female mice, i.p., traction reflex; read-out: Myorelaxation ED50
Method: as §1, §2, §3

ataxia (rotarod) = assay: Accelerating rotarod test, ataxia (motor coordination); format: in vivo, mice; settings: for Therapeutic index (ataxia ED50 / MES ED50): ED50 ataxia divided by ED50 MES
Method: as §1, §2, §3

[5] = test system: myorelaxation (traction reflex); assay: Traction reflex test, myorelaxant action; format: in vivo, mice; settings: for Therapeutic index (myorelaxation ED50 / MES ED50): ED50 myorelaxation divided by ED50 MES
Method: as §1, §2, §3

[6] = NMR female mice, i.p. 30 min before convulsions
[7] = Table 1, mean, N=6, read-out: NMDA IC50
[8] = read-out: [^3H]MK-801 Ki, rat cortex membranes, [3H]-(+)-MK-801 5 nM, glycine 10 μM, glutamate 10 μM, mean

Row | Molecule | Ki [3] | IC50 (NMDA receptors; [7]) | ED50 at 30 min [4] | ED50 at 30 min [1] | ED50 [2, 6] | Therapeutic index (ataxia ED50 / MES ED50) (ataxia (rotarod)) | Therapeutic index (myorelaxation ED50 / MES ED50) [5] | Ataxia ED50 (ataxia (rotarod); NMR female mice, i.p., accelerating rotarod) | MES ED50 [2, 6] | Ki [3, 8] | Myorelaxation ED50 ([5]; NMR female mice, i.p., traction reflex) | ED50 [2] | IC50 (NMDA receptors)
1 | C=C[C@@]1(C)C[C@H](C)C[C@@](C)(N)C1 (relative stereo) [MRZ 2009, cis-3-Vinyl-1,3,trans-5-trimethylcyclohexylamine] | 22.3 µM | 58.2 µM | > 50 mg/kg | > 50 mg/kg | > 50 mg/kg | – | – | – | – | – | – | – | –
2 | CC1=CC(C)(C)CC(C)(C)C1N.Cl (stereo not shown) [MRZ 2/657, 1-amino-2,4,4,6,6-pentamethyl-cyclohex-2-en Hydrochloride] | 13.4 µM | – | > 30 mg/kg | > 30 mg/kg | > 30 mg/kg | – | – | – | – | – | – | – | –
3 | CC(N)C1=CC(C)(C)CC(C)(C)C1 (stereo not shown) [MRZ 2/749, 1-(1-Aminoethyl)-3,3,5,5-tetramethylcyclohex-1-ene] | 10.8 µM | – | 38.6 mg/kg | 37.1 mg/kg | 26.6 mg/kg | 1.4 | 1.5 | – | – | – | – | – | –
4 | CC1=CC(N)CC(C)(C)C1 (stereo not shown) [MRZ 2/1023, 1-Amino-3,3,5-trimethyl-2-cyclohexene] | – | – | – | – | – | – | – | >50 | >50 | 49.6 µM | >50 | – | –
5 | CC1=CC(C)(N)CC(C)(C)C1 (stereo not shown) [MRZ 2002, 1,3,5,5-Tetramethyl-2-cyclohexen-1-amine] | 5.7 µM | – | 34 mg/kg | 53 mg/kg | – | 2.0 | 1.3 | – | – | – | – | 26.1 mg/kg | –
6 | CCC1(CC)CC(=CC(C)N)CC(C)(C)C1 (stereo not shown) [MRZ 2008, 1-(3,3-Diethyl-5,5-dimethylcyclohexylidene)-2-propanamine] | 8.07 µM | 2.74 µM | – | – | – | – | – | – | – | – | – | – | –
7 | CC(C)(N)CC1=CC(C)(C)CC(C)(C)C1 [MRZ 2010, 2-Methyl-1-(3,3,5,5-tetramethyl-1-cyclohexen-1-yl)-2-propanamine] | 44.9 µM | – | > 50 mg/kg | > 50 mg/kg | – | – | – | – | – | – | – | > 50 mg/kg | –
8 | C=CCC1(N2CCCCC2)CC(C)(C)CC(C)(C)C1 [MRZ 2013, 1-(1-Allyl-3,3,5,5-tetramethylcyclohexyl)piperidine] | 49.2 µM | – | > 50 mg/kg | > 50 mg/kg | – | – | – | – | – | – | – | > 50 mg/kg | –
9 | CC(C)=CCC1(N2CCCCC2)CC(C)(C)CC(C)(C)C1 [MRZ 2015, 1-[3,3,5,5-Tetramethyl-1-(3-methyl-2-butenyl)cyclohexyl]piperidine] | 83 µM | – | > 50 mg/kg | > 50 mg/kg | – | – | – | – | – | – | – | > 50 mg/kg | –
10 | C#CCC1(N2CCCCC2)CC(C)(C)CC(C)(C)C1 [MRZ 2016, 1-[3,3,5,5-Tetramethyl-1-(2-propynyl)cyclohexyl]piperidine] | 42.2 µM | 71.2 µM | > 50 mg/kg | > 50 mg/kg | – | – | – | – | – | – | – | > 50 mg/kg | –
11 | CC(C)(N)C=C1CC(C)(C)CC(C)(C)C1 [MRZ 2019, 2-Methyl-1-(3,3,5,5-tetramethylcyclohexylidene)-2-propanamine] | 73.1 µM | – | > 50 mg/kg | > 50 mg/kg | – | – | – | – | – | – | – | > 50 mg/kg | –
12 | C=CC1(NC)CC(C)(C)CC(C)(C)C1 [MRZ 2021, N-Methyl-1-ethenyl-3,3,5,5-tetramethylcyclohexylamine] | 6.54 µM | – | 21.4 mg/kg | 24.7 mg/kg | – | 1.8 | 1.6 | – | – | – | – | 13.6 mg/kg | 12.7 µM
13 | Neramexane Sulphate [MRZ 2000, reference compound] | – | – | – | – | – | – | – | – | – | 1.68 µM | – | – | –

More lines, main results first:

Row | Ki [3] | IC50 (NMDA receptors; [7]) | ED50 at 30 min [4] | Molecule | ED50 at 30 min [1] | ED50 [2, 6] | Therapeutic index (ataxia ED50 / MES ED50) (ataxia (rotarod)) | Therapeutic index (myorelaxation ED50 / MES ED50) [5] | Ataxia ED50 (ataxia (rotarod); NMR female mice, i.p., accelerating rotarod) | MES ED50 [2, 6] | Ki [3, 8] | Myorelaxation ED50 ([5]; NMR female mice, i.p., traction reflex) | ED50 [2] | IC50 (NMDA receptors)
14 | 13.6 µM | – | 35.7 mg/kg | CC1(C)C=C(N)CC(C)(C)C1 [MRZ 2/1005, 1-Amino-3,3,5,5-Tetramethyl-1-cyclohexene] | 26.8 mg/kg | 20.5 mg/kg | 1.3 | 1.7 | – | – | – | – | – | –
15 | 2.15 µM | 0.33 µM | 16.5 mg/kg | CC1(C)CC(=CCN)CC(C)(C)C1 [MRZ 2/1021, 2-(3,3,5,5-Tetramethylcyclohexylidene)ethanamine] | 23.1 mg/kg | 29.5 mg/kg | 0.8 | 0.6 | – | – | – | – | – | –
16 | 9.35 µM | 12.6 µM | 39.8 mg/kg | C=CCC1(N)CC(C)(C)CC(C)(C)C1 [MRZ 2005, 1-Allyl-3,3,5,5-tetramethylcyclohexanamine] | 49.3 mg/kg | 37.3 mg/kg | 1.3 | 1.1 | – | – | – | – | – | –
17 | 10.1 µM | – | 44.6 mg/kg | CC(N)C=C1CC(C)(C)CC(C)(C)C1 (stereo not shown) [MRZ 2006, 1-(3,3,5,5-Tetramethylcyclohexylidene)-2-propanamine] | 40.9 mg/kg | 57 mg/kg | 0.7 | 0.8 | – | – | – | – | – | –
18 | 3.12 µM | 0.1 µM | 13.9 mg/kg | C=CC1(CCN)CC(C)(C)CC(C)(C)C1 [MRZ 2014, 2-(1-Vinyl-3,3,5,5-tetramethylcyclohexyl-1)ethylamine] | 25.8 mg/kg | 47.8 mg/kg | 0.5 | 0.3 | – | – | – | – | – | –
19 | 6.79 µM | 1.19 µM | 35.6 mg/kg | C=CCC(CN)C1(C)CC(C)(C)CC(C)(C)C1 (stereo not shown) [MRZ 2017, 2-(1,3,3,5,5-Pentamethylcyclohexyl)-4-pentenylamine] | 33.7 mg/kg | 36.9 mg/kg | 0.9 | 1.0 | – | – | – | – | – | –
20 | 20.2 µM | 37.1 µM | 29.4 mg/kg | CC1(C)CC(=CCCN)CC(C)(C)C1 [MRZ 2018, 3-(3,3,5,5-Tetramethylcyclohexylidene)propanamine] | 26.7 mg/kg | 78.5 mg/kg | 0.3 | 0.4 | – | – | – | – | – | –
21 | 7.45 µM | – | 34.5 mg/kg | CC(CN)=C1CC(C)(C)CC(C)(C)C1 [MRZ 2020, 2-(3,3,5,5-Tetramethylcyclohexylidene)propanamine] | 27.6 mg/kg | 26.1 mg/kg | 1.1 | 1.3 | – | – | – | – | – | –
22 | – | 29.6 µM | 26.7 mg/kg | C=CCNC1(C)CC(C)(C)CC(C)(C)C1 [MRZ 2026, N-Allyl-1,3,3,5,5-pentamethylcyclohexanamine] | 37.6 mg/kg | 25.4 mg/kg | 1.5 | 1.1 | – | – | – | – | – | –
